The record followed here is BindingDB's records for doi:10.1021/bi990204w (National Institute of Diabetes and Digestive and Kidney …, 1999).

pKi: −log10 of the molar value. Values joined by “and” are separate entries in the source; they are usually repeats but may differ in a detail not shown here. Equal entries are not always repeated. Where a SMILES comes first, the peptide text is derived from it. Bridges are numbered along the chain shown (N, C = ends). [ ]: non-standard residue; d: D form. 2Nal = N[C@@H](Cc1ccc2ccccc2c1)C(=O)O; d2Nal = N[C@H](Cc1ccc2ccccc2c1)C(=O)O; pGlu = O=C1CC[C@@H](C(=O)O)N1; Nle = CCCC[C@H](N)C(=O)O; βAla = NCCC(=O)O

The target of assay [1] is Gastrin-releasing peptide receptor (Mus musculus, UniProt P21729).
Assay [2] addresses T1, Neuromedin-B receptor (Rattus norvegicus, UniProt P24053).
T1 sequence (P24053 whole entry): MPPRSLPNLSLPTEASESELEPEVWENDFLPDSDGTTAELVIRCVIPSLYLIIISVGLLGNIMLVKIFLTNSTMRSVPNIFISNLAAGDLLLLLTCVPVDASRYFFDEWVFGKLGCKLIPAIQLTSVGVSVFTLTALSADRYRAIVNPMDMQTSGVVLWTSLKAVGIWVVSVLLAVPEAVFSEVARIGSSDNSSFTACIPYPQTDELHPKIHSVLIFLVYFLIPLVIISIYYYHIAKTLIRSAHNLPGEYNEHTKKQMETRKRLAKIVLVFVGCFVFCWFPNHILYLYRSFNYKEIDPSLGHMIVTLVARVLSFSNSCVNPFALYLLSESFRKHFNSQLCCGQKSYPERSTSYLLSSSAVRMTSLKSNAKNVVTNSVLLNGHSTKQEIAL

Assay [3] has as its target T2, Bombesin receptor subtype-3 (Homo sapiens, UniProt P32247).
T2 sequence (P32247 whole entry): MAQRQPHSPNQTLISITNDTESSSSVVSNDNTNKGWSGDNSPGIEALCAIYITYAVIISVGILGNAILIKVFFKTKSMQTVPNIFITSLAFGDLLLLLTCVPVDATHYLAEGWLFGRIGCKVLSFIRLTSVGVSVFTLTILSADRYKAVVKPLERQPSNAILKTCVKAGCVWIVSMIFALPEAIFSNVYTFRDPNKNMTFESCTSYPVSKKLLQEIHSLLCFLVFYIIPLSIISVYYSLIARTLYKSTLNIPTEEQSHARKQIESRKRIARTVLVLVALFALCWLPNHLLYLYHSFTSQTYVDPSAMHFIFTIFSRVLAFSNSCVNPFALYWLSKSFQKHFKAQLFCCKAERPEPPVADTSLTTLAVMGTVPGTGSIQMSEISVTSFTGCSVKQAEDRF

Assay [4] addresses Gastrin-releasing peptide receptor (Rattus norvegicus, UniProt P52500).

Sequence of Gastrin-releasing peptide receptor (Rattus norvegicus, UniProt P52500) (P52500 whole entry N28S): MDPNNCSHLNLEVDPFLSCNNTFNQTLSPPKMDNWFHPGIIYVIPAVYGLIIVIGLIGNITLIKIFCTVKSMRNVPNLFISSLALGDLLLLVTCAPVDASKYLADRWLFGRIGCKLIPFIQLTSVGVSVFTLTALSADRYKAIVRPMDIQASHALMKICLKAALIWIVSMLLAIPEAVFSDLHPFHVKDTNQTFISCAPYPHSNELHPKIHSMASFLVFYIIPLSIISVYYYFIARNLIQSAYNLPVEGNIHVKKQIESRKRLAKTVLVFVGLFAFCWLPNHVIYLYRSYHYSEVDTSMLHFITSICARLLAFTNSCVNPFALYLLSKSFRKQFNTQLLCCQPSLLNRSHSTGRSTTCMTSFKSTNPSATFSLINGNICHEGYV
Sequence of Gastrin-releasing peptide receptor (Mus musculus, UniProt P21729) (P21729 whole entry): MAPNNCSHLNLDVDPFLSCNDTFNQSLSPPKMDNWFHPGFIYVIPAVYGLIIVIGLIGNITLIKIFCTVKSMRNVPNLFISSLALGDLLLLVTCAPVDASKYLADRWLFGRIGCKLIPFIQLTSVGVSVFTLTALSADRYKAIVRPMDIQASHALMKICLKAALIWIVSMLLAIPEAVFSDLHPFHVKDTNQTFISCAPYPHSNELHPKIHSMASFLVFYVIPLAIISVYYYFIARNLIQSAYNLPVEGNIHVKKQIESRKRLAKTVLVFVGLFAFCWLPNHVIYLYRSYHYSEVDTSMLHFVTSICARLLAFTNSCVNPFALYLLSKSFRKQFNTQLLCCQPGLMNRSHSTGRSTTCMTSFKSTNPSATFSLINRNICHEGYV

A word on the pKi: it is the Ki on a negative log10 scale, so that one unit is a factor of ten. A higher pKi goes with a low Ki. Consider `CCCC[C@H](NC(=O)[C@H](Cc1ccccc1)NC(=O)[C@H](Cc1c[nH]cn1)NC(=O)CCNC(=O)[C@@H](NC(=O)[C@H](C)NC(=O)[C@H](Cc1c[nH]c2ccccc12)NC(=O)[C@H](CCC(N)=O)NC(=O)[C@H](N)Cc1ccccc1)C(C)C)C(N)=O` [DPhe6,BetaAla11,Phe13,Nle14-Bn(6-14)] (H-[dF]QWAV[βAla]HF[Nle]-NH2), for which the pKi in assay [1] was 9.59 and 9.62 and 9.72 and 9.96; in assay [2] it was 9.44; in assay [3] it was 8.05; in assay [4], 9.00.

As for `CSCC[C@H](NC(=O)[C@H](CC(C)C)NC(=O)[C@@H](Cc1ccccc1)NC(=O)CNC(=O)[C@@H](NC(=O)[C@H](C)NC(=O)[C@H](Cc1c[nH]c2ccccc12)NC(=O)[C@H](CCC(N)=O)NC(=O)[C@H](CC(N)=O)NC(=O)CNC(=O)[C@H](CC(C)C)NC(=O)[C@H](CCCN=C(N)N)NC(=O)[C@H](CCC(N)=O)NC(=O)[C@@H]1CCC(=O)N1)C(C)C)C(N)=O` [Dphe12-Bn], the negative logarithm of the Ki (pKi) in assay [2] is 5.72; in assay [3] it was under 5.00; in assay [4] it was under 5.00.

With `CCCNC(=O)[C@H](CC(C)C)NC(=O)[C@H](Cc1cnc[nH]1)NC(=O)CNC(=O)[C@@H](NC(=O)[C@H](C)NC(=O)[C@H](Cc1c[nH]c2ccccc12)NC(=O)[C@H](CCC(N)=O)NC(=O)[C@H](N)Cc1ccccc1)C(C)C` [DPhe6-Bn(6-13)propylamide], the pKi in assay [2] was 5.34; in assay [3], 5.72; in assay [4], 8.22.

For `CC(C)C[C@H](NC(=O)[C@H](Cc1cnc[nH]1)NC(=O)CNC(=O)[C@@H](NC(=O)[C@H](C)NC(=O)[C@H](Cc1c[nH]c2ccccc12)NC(=O)[C@H](CCC(N)=O)NC(=O)[C@H](N)Cc1ccccc1)C(C)C)C(=O)NN(C)C` [DPhe6-Bn(6-13)NHN(ME)2], the figures for the pKi in assay [2], in assay [3] and in assay [4] were under 5.00, under 5.00 and 5.49, respectively.

As to `CC(C)C[C@H](NC(=O)[C@H](Cc1cnc[nH]1)NC(=O)CNC(=O)[C@@H](NC(=O)[C@H](C)NC(=O)[C@H](Cc1c[nH]c2ccccc12)NC(=O)[C@H](CCC(N)=O)NC(=O)[C@H](N)Cc1ccccc1)C(C)C)C(=O)NN` [DPhe6-Bn(6-13)hydrazide], the values for the pKi in assay [2], in assay [3] and in assay [4] were under 5.00, under 5.00 and 5.92, respectively.

For the compound H-EGGGPQWAVGHFM-NH2 [PG-L], the results for the pKi in assay [2], in assay [3] and in assay [4] were 6.68, 5.28 and 8.52, respectively.

For `CC(C)C[C@@H](CN[C@@H](Cc1ccc(Cl)cc1)C(N)=O)NC(=O)[C@H](Cc1c[nH]cn1)NC(=O)CNC(=O)[C@@H](NC(=O)[C@H](C)NC(=O)[C@H](Cc1c[nH]c2ccccc12)NC(=O)[C@H](CCC(N)=O)NC(=O)[C@H](N)Cc1ccccc1)C(C)C` [DPhe6,Leu13,Psi(CH2NH),Cpa14-Bn(6-14)], the values for the pKi in assay [2], in assay [3] and in assay [4] were 5.57, under 5.00 and 7.38, respectively.

`COC(=O)[C@H](CC(C)C)NC(=O)[C@H](Cc1cnc[nH]1)NC(=O)CNC(=O)[C@@H](NC(=O)[C@H](C)NC(=O)[C@H](Cc1c[nH]c2ccccc12)NC(=O)[C@H](CCC(N)=O)NC(=O)[C@H](N)Cc1ccccc1)C(C)C` [DPhe6-Bn(6-13)methylester]: the values for the pKi in assay [2], in assay [3] and in assay [4] were 5.11, 5.28 and 8.00, respectively.

Regarding `CC(C)[C@@H]1NC(=O)[C@H](CCCCN)NC(=O)[C@@H](Cc2c[nH]c3ccccc23)NC(=O)[C@H](Cc2ccc(O)cc2)NC(=O)[C@H](NC(=O)[C@H](N)Cc2ccc3ccccc3c2)CSSC[C@@H](C(=O)N[C@@H](Cc2ccc3ccccc3c2)C(N)=O)NC1=O` [H-Nal-cyclo[DCys-Tyr-DTrp-Lys-Val-Cys]-Nal-NH2] (H-[d2Nal][dC]Y[dW]KVC[2Nal]-NH2; disulfide 2-7), the pKi in assay [2] is 6.66; in assay [3], 5.55; in assay [4] it was under 5.00.

As to `CSCC[C@H](NC(=O)[C@H](CC(C)C)NC(=O)[C@H](CO)NC(=O)CNC(=O)[C@@H](NC(=O)[C@H](C)NC(=O)[C@H](Cc1c[nH]c2ccccc12)NC(=O)[C@H](CC(C)C)NC(=O)[C@@H]1CCC(=O)N1)C(C)C)C(N)=O` [Leu8-phyllolitorin] ([pGlu]LWAVGSLM-NH2), the results for the pKi in assay [2], in assay [3] and in assay [4] were under 5.00, 5.27 and 6.38, respectively.

In the case of `CC(C)C[C@H](NC(=O)[C@H](CC(C)C)NC(=O)[C@@H](Cc1c[nH]c2ccccc12)NC(=O)[C@H](Cc1ccccc1)NC(=O)[C@@H](Cc1c[nH]c2ccccc12)NC(=O)[C@H](CCC(N)=O)NC(=O)[C@H](CCC(N)=O)NC(=O)[C@@H]1CCCN1C(=O)[C@H](CCCCN)NC(=O)[C@@H]1CCCN1C(=O)[C@H](N)CCCN=C(N)N)C(N)=O` [Substance P,[DArg1,DTrp7,9,Leu11]] (H-[dR]PKPQQ[dW]F[dW]LL-NH2), the pKi in assay [2] is 5.39; in assay [3], under 5.00; in assay [4], 4.95.
